Data as given in ChEMBL document CHEMBL2429805, “Studies toward the development of new silicon-containing building blocks for the direct (18)F-labeling of peptides” (J Med Chem, 2013).

Assays:
[1] = Half life of the compound in water; format: physicochemical
[2] = Ratio of biodistribution in tumor to blood of NMRI nude mouse xenografted with human PC3 cells after 120 mins by gamma-counting analysis; format: ADME, organism-based, PC-3; conditions: tumour, 2 h
[3] = Lipophilicity, log D of the compound; format: physicochemical; conditions: octanol/water
Liver = assay: Biodistribution in liver of NMRI nude mouse xenografted with human PC3 cells after 120 mins by gamma-counting analysis; format: ADME, organism-based, PC-3; conditions: in vivo, 2 h
Pancreas = assay: Biodistribution in pancreas of NMRI nude mouse xenografted with human PC3 cells after 120 mins by gamma-counting analysis; format: ADME, organism-based, PC-3; conditions: in vivo, 2 h
Mus musculus [4] = assay: Biodistribution in tumor of NMRI nude mouse xenografted with human PC3 cells after 120 mins by gamma-counting analysis; format: ADME, organism-based, Neoplasm, PC-3; conditions: in vivo, 2 h
Spleen = assay: Biodistribution in spleen of NMRI nude mouse xenografted with human PC3 cells after 120 mins by gamma-counting analysis; format: ADME, organism-based, PC-3; conditions: in vivo, 2 h
Mus musculus [5] = assay: Biodistribution in gallbladder of NMRI nude mouse xenografted with human PC3 cells after 120 mins by gamma-counting analysis; format: ADME, organism-based, Gall bladder, PC-3; conditions: in vivo, 2 h
Kidney = assay: Biodistribution in kidney of NMRI nude mouse xenografted with human PC3 cells after 120 mins by gamma-counting analysis; format: ADME, organism-based, PC-3; conditions: in vivo, 2 h
Blood = assay: Biodistribution in blood of NMRI nude mouse xenografted with human PC3 cells after 120 mins by gamma-counting analysis; format: ADME, organism-based, PC-3; conditions: in vivo, 2 h
Intestine = assay: Biodistribution in intestine of NMRI nude mouse xenografted with human PC3 cells after 120 mins by gamma-counting analysis; format: ADME, organism-based, PC-3; conditions: in vivo, 2 h

A half-life [1] of 8 h was found for `CC(C)(C)[Si](F)(CCO)C(C)(C)C` in this work.

A Ratio [2] of 0.95, a logD [3] of 1.3 and a Drug uptake (Liver) of 4.4 % ID/g were found for `CC(C)C[C@H](NC(=O)C[C@H](O)[C@H](CC(C)C)NC(=O)[C@H](Cc1cnc[nH]1)NC(=O)CN(C)C(=O)[C@@H](NC(=O)[C@H](C)NC(=O)[C@H](Cc1c[nH]c2ccccc12)NC(=O)[C@H](CCC(N)=O)NC(=O)CCCCNC(=O)[C@H](CCCNC(=N)N)NC(=O)Cc1ccc([Si]([18F])(C(C)(C)C)C(C)(C)C)cc1)C(C)C)C(N)=O` in this work. For the same compound, the Drug uptake (Pancreas) was 4.08 % ID/g, the Drug uptake (Mus musculus [4]) was 0.4 % ID/g and the Drug uptake (Spleen) was 0.46 % ID/g. It also gave a Drug uptake (Mus musculus [5]) of 146 % ID/g, a Drug uptake (Kidney) of 1.73 % ID/g and a Drug uptake (Blood) of 0.42 % ID/g. For the same compound, the Drug uptake (Intestine) was 16 % ID/g.

A half-life [1] of over 300 h was found for `CC(C)(C)[Si](F)(c1ccc(CC(=O)NCc2ccccc2)cc1)C(C)(C)C` in this work.
